Laboratory results taken from patent US6376169B1, “Method for diagnosing a vascular condition” (Queens University at Kingston, priority 1998, dated 2002).

What was measured:
[1] = tested on: MDA-MB-231 cells; assay: In vitro invasion of MDA-MB-231 cells through Matrigel; assay type: cell-based, human; conditions: 1% O2 + 30% CO
Description: In vitro invasion assay. An assay which employs reconstituted basement membrane (Matrigel; Collaborative Biomedical Products, Bedford, Mass.) as the substrate for invasion was used to determine the effect of hypoxia on the invasiveness of tumor cells. Costar Transwell inserts (6.5 mm diameter polycarbonate membrane, 8 μm pore; Corning Costar Corp., Cambridge, Mass.) were coated with 100 μl of a 1 mg/ml solution of Matrigel diluted in cold serum-free culture medium, placed in the wells of a 24-well tissue culture plate and allowed to air-dry for 12 h in a laminar flow cabinet. After reconstituting the Matrigel by incubating for 1 h with 100 μl of serum-free medium, 5.0×10^4 cells in 100 μl aliquots of serum-containing medium were added to the Transwells. Following a 24-h incubation under either 20% or 1% O2 in the absence or presence of 10 μg/ml blocking anti-uPAR antibody (3936), or under 1% O2+30% CO (to assess the role of a heme protein on invasion), cells on the surface of the Matrigel-coated polycarbonate membrane (non-invading cells) were removed by scraping with a cotton swab. […] The invasion index' was then determined by counting, under a microscope, the total number of stained cells in the underside of the polycarbonate membranes.

[2] = tested on: uPAR; assay: uPAR protein and mRNA in cancer cells (Example 1); assay type: cell-based; conditions: 24 hours, standard conditions; 100 μM cobalt chloride; Tiron

In the case of `[C-]#[O+]` [carbon monoxide], the “effect on hypoxia-mediated increase in invasiveness” value [1] is reported as “completely abrogated”.
For `[Cl][Co][Cl]` [cobalt chloride], the “uPAR protein and mRNA levels” value [2] was “elevated uPAR protein and mRNA levels”.
